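Results reflect a 48-hour exposure of cells in 96-well plates to compound at five concentrations. GI50 marks 50% less growth.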 Active and inactive are the calls of the source. Cut-off read from the data, not from the text of the source: active = GI50 up to about 1.1 µM and inactive = higher.
Assays:
Assay in all cases: NCI-60 cell line screen, 48 h
786-0 = system: 786-0
A498 = system: A498
CCRF-CEM = system: CCRF-CEM
HL-60 = system: HL-60
HOP-62 = system: HOP-62
Hs-578T = system: Hs-578T
K562 = system: K562
LOX IMVI = system: LOX IMVI
MDA-MB-231 = system: MDA-MB-231
MDA-N = system: MDA-N
NCI/ADR-RES = system: NCI/ADR-RES
OVCAR-3 = system: OVCAR-3
OVCAR-8 = system: OVCAR-8
SF-539 = system: SF-539
SK-MEL-28 = system: SK-MEL-28
SN12C = system: SN12C
SNB-75 = system: SNB-75
SR = system: SR
CAKI-1 = system: CAKI-1
HCC 2998 = system: HCC 2998

Measured: GI50

Cc1c(C)c(C)c(CC2(C)CSC2)c(CC2(C)CSC2)c1C
inactive: 786-0 > 100 µM | A498 > 100 µM | CCRF-CEM > 100 µM | HL-60 > 100 µM | HOP-62 > 100 µM | Hs-578T > 100 µM | K562 > 100 µM | LOX IMVI > 100 µM | MDA-MB-231 > 100 µM | MDA-N > 100 µM | NCI/ADR-RES > 100 µM | OVCAR-3 > 100 µM | OVCAR-8 > 100 µM | SF-539 > 100 µM | SK-MEL-28 > 100 µM | SN12C > 100 µM | SNB-75 > 100 µM | SR > 100 µM

Cc1nnc(N)nc1/C=C\c1ccc(Cl)cc1Cl
inactive: 786-0 40.7 µM | A498 > 100 µM | CAKI-1 > 100 µM | CCRF-CEM 27.5 µM | HCC 2998 21.6 µM | HL-60 27 µM | HOP-62 20.3 µM | Hs-578T 29.2 µM | K562 77.8 µM | LOX IMVI 40.2 µM | MDA-MB-231 87.5 µM | MDA-N 55.5 µM | NCI/ADR-RES > 100 µM | OVCAR-8 27 µM | SK-MEL-28 55.5 µM | SN12C 61.5 µM | SR 46.6 µM

COc1cc(C2SC(C)C(=O)N2c2ccc(-c3csc(NS(=O)(=O)c4ccc(Cl)c(OC)c4)n3)cc2)ccc1O (configuration not stated)
inactive: 786-0 67.3 µM | A498 > 100 µM | CAKI-1 > 100 µM | CCRF-CEM 14.6 µM | HL-60 48.2 µM | HOP-62 > 100 µM | Hs-578T 54.1 µM | K562 34 µM | LOX IMVI 31.3 µM | MDA-MB-231 > 100 µM | MDA-N 41.2 µM | NCI/ADR-RES > 100 µM | OVCAR-3 56.4 µM | OVCAR-8 29.7 µM | SF-539 32.7 µM | SK-MEL-28 > 100 µM | SN12C 20.6 µM | SNB-75 19.7 µM | SR 23.9 µM

O=C1NC(O)CCN1C1CC(O)C(CO)O1 (configuration not stated)
inactive: 786-0 > 100 µM | A498 > 100 µM | CAKI-1 > 100 µM | CCRF-CEM > 100 µM | HCC 2998 > 100 µM | HL-60 > 100 µM | HOP-62 > 100 µM | Hs-578T > 100 µM | K562 > 100 µM | LOX IMVI > 100 µM | MDA-MB-231 > 100 µM | MDA-N > 100 µM | NCI/ADR-RES > 100 µM | OVCAR-3 > 100 µM | OVCAR-8 > 100 µM | SF-539 > 100 µM | SK-MEL-28 > 100 µM | SN12C > 100 µM | SR > 100 µM

CCCOC(=O)NC(C)C(=O)NC(CCC(=O)NC(CCCC(N)C(=O)O)C(=O)NC(C)C(=O)O)C(=O)O (configuration not stated)
inactive: 786-0 30.2 µM | A498 > 100 µM | CAKI-1 19.9 µM | CCRF-CEM 19.2 µM | HCC 2998 17.1 µM | HL-60 24.8 µM | HOP-62 > 100 µM | Hs-578T 15.7 µM | LOX IMVI 16.6 µM | MDA-MB-231 19.3 µM | MDA-N 21.1 µM | NCI/ADR-RES 19.2 µM | OVCAR-3 80.9 µM | OVCAR-8 17.9 µM | SF-539 14.8 µM | SK-MEL-28 19.4 µM | SN12C 50.8 µM | SR 15.6 µM

C=CCSC1=N/C(=C\c2ccc(Cl)cc2)C(=O)N1CC=C
inactive: 786-0 35.7 µM | A498 13.6 µM | CAKI-1 37 µM | CCRF-CEM 21.4 µM | HCC 2998 34.8 µM | HL-60 9.35 µM | HOP-62 41.9 µM | Hs-578T 68.7 µM | K562 29.5 µM | LOX IMVI 42.9 µM | MDA-MB-231 30.2 µM | MDA-N 32.7 µM | NCI/ADR-RES 34 µM | OVCAR-3 43.7 µM | OVCAR-8 47.2 µM | SF-539 28.8 µM | SK-MEL-28 50.2 µM | SN12C 34.3 µM | SR 27.4 µM

COC(=O)[C@H]1CO[C@@H](C(C)(C)C)N1C(=O)N1C=CC(=O)C[C@@H]1C
inactive: 786-0 > 100 µM | A498 > 100 µM | CAKI-1 > 100 µM | CCRF-CEM > 100 µM | HL-60 > 100 µM | HOP-62 > 100 µM | Hs-578T > 100 µM | K562 > 100 µM | LOX IMVI > 100 µM | MDA-MB-231 > 100 µM | MDA-N > 100 µM | NCI/ADR-RES > 100 µM | OVCAR-3 > 100 µM | OVCAR-8 > 100 µM | SK-MEL-28 > 100 µM | SN12C > 100 µM | SNB-75 > 100 µM | SR > 100 µM

O=C1C(c2c(O)[nH]c3ccc(Cl)cc23)=Nc2ccccc21
inactive: 786-0 1.99 µM | A498 5.01 µM | CAKI-1 3.83 µM | CCRF-CEM 27.4 µM | HL-60 28.8 µM | HOP-62 5.58 µM | Hs-578T 3.43 µM | K562 7.71 µM | LOX IMVI 3.66 µM | MDA-MB-231 2.51 µM | MDA-N 6.38 µM | NCI/ADR-RES 7.91 µM | OVCAR-3 3.66 µM | OVCAR-8 4.09 µM | SF-539 4.65 µM | SK-MEL-28 > 100 µM | SN12C 17 µM | SNB-75 4.99 µM | SR 9.02 µM

Source: ChEMBL document CHEMBL1201862, “PubChem BioAssay data set” (2004)
